Results taken from patent publication US20240109848A1, “PROCESS FOR THE PREPARATION OF IMIDAZOBENZODIAZEPINES” (ODH IP Corp., priority 2022, published 2024).

What was measured:
[1] = LC-MS analysis of the TGA samples for thermal isomerization to isomidazolam; type: physicochemical; conditions: LC-MS of sample after TGA at 200° C. for 50 minutes
[2] = for weight remaining of starting sample (TGA): heated at 200° C. for 50 minutes
Procedure: To test the stable ion-pair hypothesis, TGA of PTSA, midazolam, and their combined salt pair were heated at 200° C. for 50 minutes and their decomposition rates were compared (FIG. 13).

[3] = pH titration of the carboxylate with mother liquor analysis (solubility versus pH); type: physicochemical; conditions: pH values below 1, methanol/KOH saponification mixture titrated with acid
Procedure: Saponification of midazolam ethyl ester to the carboxylic acid was performed both in batch and flow, but poor solubility limited the throughput of a continuous manufacturing approach. Therefore, the reaction was run as a batch in a methanol/KOH solution. Much of the R&D on this process step revolved around the reactive crystallization of the carboxylic acid product. […] An initial screen was performed by titrating a batch of the carboxylate and analyzing the mother liquor at decreasing pH values to determine the pH value with the highest yield (FIG. 10).
The titration experiment determined that pH 5.5-6.0 would provide the highest yielding crystallization. At pH values lower than this, the solubility of the product increases again until it is fully soluble at pH values below 1. […] This was an attractive development as the ring open form had been previously reported to provide a purer decarboxylation. The ring quickly closes in neutral solvent, and the diastereomeric methylene resonances appear clearly between 4-6 ppm. […] To test this hypothesis, we performed […] batch reactions and crystallization at pH 1, and 5.5. The solid products were characterized by thermogravimetric analysis and ^1H NMR spectroscopy (FIGS. 11A and 11B).

Compound: 8-chloro-6-(2-fluorophenyl)-1-methyl-4H-imidazo[1,5-a][1,4]benzodiazopine [Midazolam, reference compound]
- isomidazolam formed in TGA sample [1]: 12 % LCAP
- weight remaining of starting sample (TGA) [2]: 65 weight %

Compound: Cc1ccc(S(=O)(=O)O)cc1.Cc1ncc2n1-c1ccc(Cl)cc1C(c1ccccc1F)=NC2 [midazolam:PTSA pair]
- isomidazolam formed in TGA sample [1]: 1 % LCAP
- weight remaining of starting sample (TGA) [2]: 90 weight %

Compound: Cc1nc(C(=O)O)c2n1-c1ccc(Cl)cc1C(c1ccccc1F)=NC2 [Midazolam carboxylic acid, 8-chloro-6-(2-fluorophenyl)-1-methyl-4H-imidazo[1,5-a][1,4]benzodiazopine-3-carboxylic acid]
- solubility of the product [3]: fully soluble

Compound: Cc1ccc(S(=O)(=O)O)cc1 [PTSA, para-toluenesulfonic acid]
- weight remaining (TGA) ([2]; heated at 200° C., within 40 minutes of heating): ~10 weight %
